Measured values from PMC10565663, “^177Lu-labeled PSMA targeting therapeutic with optimized linker for treatment of disseminated prostate cancer; evaluation of biodistribution and dosimetry” (Frontiers in Oncology, 2023).
Several values for one entry are separate records, joined by “and”; a condition that tells them apart may be missing. Identical values can stand only once.

How the values were obtained:
[1] = target: T1, PSMA-expressing PC-3pip prostate cancer cells (Homo sapiens, UniProt Q04609); assay: Half-maximal inhibitory concentration: inhibition of [^111In]In-PSMA-617 binding; settings: vs [^111In]In-PSMA-617 (1 nM); PC3-pip cells; 4°C, 4 hours
T1 construct: expressed in transfected cells; host or cells: PC3-pip (PSMA-transfected PC-3 human prostate cancer cells), provided by Prof; M. Pomper, Johns Hopkins University
Experimental: For the determination of a half-maximal inhibitory concentration (IC50), PSMA-617 was labeled with indium-111. For this purpose, 2 nmol PSMA-617 were dissolved in 40 µL 0.2 M ammonium acetate, pH 5.5, and 12 µL (10 MBq) of [^111In]InCl3 solution in 0.01 M HCl was added. The mixture was vortexed and incubated at 85 °C for 30 min. The yield was determined using iTLC eluted with 0.2 M citric acid, pH 2.0. Since the radiochemical yield was over 98%, [^111In]In-PSMA-617 was used in further experiments without purification.
For determination of IC50, BQ7876 and PSMA-617 were loaded with non-radioactive Lu of natural isotopic composition (^natLu) by incubation with a three-fold molar excess of ^natLuCl3 at 85 °C for 30 min in 0.2 M ammonium acetate, pH 5.5. Cells were washed with a PBS solution and incubated at 4°C for 4 hours with [^111In]In-PSMA-617 (1 nM) in the presence of increasing concentrations (range 0 to 2 μM) of competitors, ^natLu-BQ7876 or ^natLu-PSMA-617. Thereafter, cells were detached, collected, and cell-associated activity was measured using gamma-counter. The half-maximal inhibitory concentration was calculated using GraphPad software (version 9.3.1 for Windows, GraphPad Software, LLC. CA, USA).

[2] = system: PC3-pip cells; assay: Cellular processing and internalization (acid wash method); type: cell-based, human; settings: 2 nM, after 24 h of continuous incubation at 37°C
Experimental: Internalization of radiolabeled PSMA binders was evaluated using an acid wash method ([21]). PC3-pip cells were incubated with 2 nM of [^177Lu]Lu-BQ7876 or [^177Lu]Lu-PSMA-617 in RPMI medium at 37°C (5% of CO2). At predetermined time points (1, 2, 6 and 24 h), cells were treated with 0.5 mL of 4 M urea solution in a 0.2 M glycine buffer, pH 2.5, for 5 minutes on ice. After that, the acidic supernatant was collected and this fraction was considered to be a membrane-bound activity. To lyse the cells, 0.5 mL of 1 M sodium hydroxide solution was added and incubated at 37°C for at least 20 min. Alkaline-containing solution was collected, and the basic fraction was considered to be an internalized activity. Samples were measured using gamma-counter.

[3] = target: T2, PSMA-expressing PC3-pip cells (Homo sapiens, UniProt Q04609); assay: In vitro binding specificity test (PSMA saturation with unlabeled compound); settings: 1 nM radiolabeled compound, 100-fold molar excess unlabeled, 1 h 37°C
T2 construct: expressed in transfected cells; host or cells: PC3-pip (PSMA-transfected PC-3 human prostate cancer cells), provided by Prof; M. Pomper, Johns Hopkins University
Experimental: The human prostate cancer cell line PC-3 was purchased from the American Type Culture Collection (ATCC; LGC Promochem, Borås, Sweden). The cells were cultured in Roswell Park Memorial Institute (RPMI) 1640 medium supplemented with 10% fetal bovine serum (FBS), 2 mM L-glutamine, penicillin 100 IU/mL and 100 µg/mL streptomycin at 37°C and 5% CO2 atmosphere. The PSMA-transfected and overexpressing variant of PC3 cell line, PC3-pip, was provided by Prof. M. Pomper, Department of Radiology, the Johns Hopkins University, Baltimore, MD, US. PC3-pip cells were cultured in two types of RPMI media. The first one contained 20% fetal bovine serum, 1% of L-glutamine (5 mL) and 1% of PEST (penicillin and streptomycin 5 mL). The second one contained 20% fetal bovine serum, 1% of L-glutamine (5 mL) and 1% of PEST (penicillin and streptomycin 5 mL) and 10 μg/mL of pyramycin. The second media is used every second passage to maintain clone selection. All in vitro experiments were performed in triplicates. For a typical experiment, cells were seeded one day before the experiment in Petri dishes (35 mm) in the amount of 1×10^6 cell/dish.
[…] specificity was tested using a saturation method. Before the experiment, cells were washed with PBS solution. […] Cell-associated activity was measured using gamma-counter and presented as the percentage of added activity.

[4] = system: PC3-pip xenografts; assay: Biodistribution in mice bearing PSMA-positive PC3-pip xenografts; type: in vivo, Balb/c nu/nu mice; settings: 3 h p.i.; PC3-pip xenograft mice; n=4
Experimental: To prepare xenografts, PC3-pip and PC3 (PSMA-negative control) cells (10^7 cells in 100 μL of media) were subcutaneously injected in the hind legs of female Balb/c nu/nu mice. At the time of the experiment, the average mouse weight was 18 ± 2 g. The average tumor weight was 0.2 ± 0.1 g.
Biodistribution of [^177Lu]Lu-BQ7876 was determined at 1, 3, 24, 48 and 130 hours p.i. Mice were injected with [^177Lu]Lu-BQ7876 (280 kBq/mouse). The amount of substance was adjusted to 80 pmol/mouse using unlabeled substance. A group of four animals per data point was used. The labeled peptide was injected into the tail vein. Mice were anaesthetized by a lethal intraperitoneal injection of ketamine and xylazine mixture solution (the dose of ketamine was 250 mg/kg and the dose of xylazine was 25 mg/kg) and sacrificed. Mice were exsanguinated by heart puncture using a heparinized syringe under anaesthesia. Organs and tissues were excised and weighed, and the activity of each organ was measured. The percentage of injected dose per gram of sample (%ID/g) was calculated. Activity in the rest of the gastrointestinal tract was measured to estimate hepatobiliary excretion. The rest of the body was also collected and its activity was measured. […]

[5] = system: PC3-pip xenografts; assay: microSPECT/CT imaging of mice bearing PC3-pip xenografts; type: in vivo, Balb/c nu/nu mice; settings: 3 h pi, 80 pmol/mouse
Experimental: To confirm the biodistribution data, imaging of mice bearing PC3-pip xenografts was performed. The mice were injected with [^177Lu]Lu-BQ7876 (900 kBq/mouse, 80 pmol/mouse) or [^177Lu]Lu-PSMA-617 (1200 kBq/mouse, 80 pmol/mouse). Imaging was performed at 3 h pi using nanoScan SPECT/CT (Mediso Medical Imaging Systems, Hungary) according to the protocol describe earlier ([25]).

[6] = design: method as in Kuo et al. 2018; settings: humans; extrapolated from mouse biodistribution; ref Kuo et al. 2018; cited from earlier work

T1 sequence (Q04609 whole entry): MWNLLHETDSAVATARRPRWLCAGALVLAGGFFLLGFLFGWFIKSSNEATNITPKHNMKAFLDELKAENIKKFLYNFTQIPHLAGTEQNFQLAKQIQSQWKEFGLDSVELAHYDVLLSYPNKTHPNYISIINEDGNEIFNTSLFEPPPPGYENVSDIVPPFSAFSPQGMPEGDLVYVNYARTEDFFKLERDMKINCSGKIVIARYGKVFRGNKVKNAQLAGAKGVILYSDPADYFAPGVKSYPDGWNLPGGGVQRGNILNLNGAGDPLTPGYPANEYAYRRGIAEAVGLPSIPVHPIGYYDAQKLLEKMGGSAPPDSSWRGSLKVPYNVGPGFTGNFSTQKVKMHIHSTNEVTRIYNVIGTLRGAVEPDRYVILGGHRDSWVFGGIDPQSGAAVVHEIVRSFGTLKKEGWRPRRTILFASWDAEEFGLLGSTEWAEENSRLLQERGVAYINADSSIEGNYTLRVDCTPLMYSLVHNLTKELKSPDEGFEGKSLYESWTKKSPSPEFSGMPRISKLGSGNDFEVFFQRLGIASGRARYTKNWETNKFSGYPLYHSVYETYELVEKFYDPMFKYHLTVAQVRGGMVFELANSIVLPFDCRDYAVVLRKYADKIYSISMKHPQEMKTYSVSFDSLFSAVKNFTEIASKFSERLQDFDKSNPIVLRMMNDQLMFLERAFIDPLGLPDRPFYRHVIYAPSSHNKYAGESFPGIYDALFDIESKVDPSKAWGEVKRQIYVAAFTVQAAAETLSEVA
T2 sequence (Q04609 whole entry): as above

For `O=C([O-])CN1CCN(CC(=O)[O-])CCN(CC(=O)NC[C@H]2CC[C@H](C(=O)N[C@@H](Cc3ccc4ccccc4c3)C(=O)NCCCC[C@H](NC(=O)N[C@@H](CCC(=O)O)C(=O)O)C(=O)O)CC2)CCN(CC(=O)[O-])CC1.[Lu+3]` [^natLu-PSMA-617], the IC50 [1] was 61 nM and 60 nM.
With `O=C(O)CC[C@H](NC(=O)N[C@@H](CCCCNC(=O)[C@H](Cc1ccc2ccccc2c1)NC(=O)[C@H]1CC[C@H](CNC(=O)CN2CCN(CC(=O)O)CCN(CC(=O)O)CCN(CC(=O)O)CC2)CC1)C(=O)O)C(=O)O` [PSMA-617] the “internalized fraction of the total cell-associated activity” value [2] was 10.0 ± 2.9%.
With `O=C([O-])CN1CCN(CC(=O)[O-])CCN(CC(=O)NC[C@H]2CC[C@H](C(=O)N[C@@H](Cc3ccc4ccccc4c3)C(=O)NCCCC[C@H](NC(=O)N[C@@H](CCC(=O)O)C(=O)O)C(=O)O)CC2)CCN(CC(=O)[O-])CC1.[111In+3]` [[^111In]In-PSMA-617] the “Binding of labeled compound to cells after saturation of PSMA with large excess of unlabeled compound” value [3] was “highly significant (p< 5 x 10^-6) reduction of binding”.
In the case of `O=C([O-])CN1CCN(CC(=O)[O-])CCN(CC(=O)NC[C@H]2CC[C@H](C(=O)N[C@@H](Cc3ccc4ccccc4c3)C(=O)NCCCC[C@H](NC(=O)N[C@@H](CCC(=O)O)C(=O)O)C(=O)O)CC2)CCN(CC(=O)[O-])CC1.[177Lu+3]` [[^177Lu]Lu-PSMA-617], the “Binding of labeled compound to cells after saturation of PSMA with large excess of unlabeled compound” value [3] is reported as “highly significant (p< 5 x 10^-6) reduction of binding”, the Uptake in blood [4] is reported as 0.06±0.02 %IA/g and the Uptake in bone [4] is reported as 0.11±0.02 %IA/g. It also gave an Uptake in heart [4] of 0.08±0.07 %IA/g, an Uptake in kidney [4] of 9±3 %IA/g and an Uptake in liver [4] of 0.24±0.02 %IA/g. The Uptake in lung [4] was 0.21±0.07 %IA/g, the Uptake in muscle [4] was 0.07±0.02 %IA/g and the Uptake in pancreas [4] was 0.09±0.04 %IA/g. The “Uptake in salivary gland” value [4] was 0.12±0.04 %IA/g, the Uptake in spleen [4] was 0.5±0.3 %IA/g and the Uptake in tumor [4] was 12±3 %IA/g. The “Activity accumulation in microSPECT/CT imaging” value [5] was “accumulated avidly in tumors”, the “Absorbed dose, adrenals” value [6] was 7.64E-03 mGy/MBq and the “Absorbed dose, brain” value [6] was 4.32E-04 mGy/MBq. The “Absorbed dose, gallbladder wall” value [6] was 8.76E-04 mGy/MBq, the “Absorbed dose, heart wall” value [6] was 1.00E-03 mGy/MBq and the “Absorbed dose, kidneys” value [6] was 1.11E-01 mGy/MBq. For the same molecule, the “Absorbed dose, liver” value [6] was 1.37E-03 mGy/MBq, the “Absorbed dose, lungs” value [6] was 1.81E-03 mGy/MBq and the “Absorbed dose, osteogenic cells” value [6] was 8.30E-04 mGy/MBq. The “Absorbed dose, pancreas” value [6] was 7.60E-04 mGy/MBq, the “Absorbed dose, prostate” value [6] was 1.17E-03 mGy/MBq and the “Absorbed dose, red marrow” value [6] was 7.59E-04 mGy/MBq. The “Absorbed dose, small intestine” value [6] was 1.72E-03 mGy/MBq, the “Absorbed dose, spleen” value [6] was 4.42E-03 mGy/MBq and the “Absorbed dose, stomach wall” value [6] was 1.69E-03 mGy/MBq. For the same molecule, the “Absorbed dose, testes” value [6] was 1.05E-03 mGy/MBq, the “Absorbed dose, thymus” value [6] was 7.19E-04 mGy/MBq and the “Absorbed dose, thyroid” value [6] was 7.11E-04 mGy/MBq. The “Absorbed dose, total body” value [6] was 1.70E-03 mGy/MBq.
